Results published in ChEMBL document CHEMBL4028893, “Discovery and Optimization of Potent, Cell-Active Pyrazole-Based Inhibitors of Lactate Dehydrogenase (LDH)” (J Med Chem, 2017).
Calls of active or inactive are those of the source. The calls are words filed in the database; no cut-off is given here.

Assays:
[1] = target: T1, L-lactate dehydrogenase A chain (Homo sapiens, UniProt P00338)
Description: Inhibition of human liver LDHA using sodium pyruvate as substrate after 5 mins in presence of NAPDH and EDTA by diaphorase/resazurin based fluorescence assay

[2] = target: T2, L-lactate dehydrogenase (Homo sapiens, UniProt V9HWB9); test: Inhibition of LDH in human MIAPaCa2 cells assessed as reduction in lactate production preincubated for 2 hrs measured after 30 mins by high throughput fluorescence assay; format: cell-based
[3] = target: T1, L-lactate dehydrogenase A chain; remark: listed apart in the source
Description: Inhibition of human liver LDHA using sodium pyruvate as substrate after 5 mins in presence of NAPDH and in absence of EDTA by diaphorase/resazurin based fluorescence assay

[4] = target: T2, L-lactate dehydrogenase; test: Inhibition of LDH in human A673 cells assessed as reduction in lactate production preincubated for 2 hrs measured after 30 mins by high throughput fluorescence assay; format: cell-based

`NS(=O)(=O)c1ccc(Cc2c(-c3ccccc3)nn(-c3nc(CO)cs3)c2C(F)(F)F)cc1` showed an IC50 [1] of 25.5 µM.
For `O=C(O)c1csc(-n2nc(-c3ccc(F)c(F)c3)cc2O)n1`, the inhibition [2] was “inactive”, the IC50 [3] was 0.15 µM and the inhibition [4] was “inactive”. For the same molecule, the IC50 [1] was > 57 µM.
In the case of `O=C(O)c1csc(-n2nc(-c3cccc4ccccc34)cc2O)n1`, the inhibition [2] is reported as “inactive”, the IC50 [3] is reported as 0.213 µM and the inhibition [4] is reported as “inactive”. The IC50 [1] was > 57 µM.
With `Nc1cc(-c2ccccc2)nn1-c1nc(C(=O)O)cs1` the inhibition [2] was “inactive”, the IC50 [3] was 26.7 µM and the inhibition [4] was “inactive”. The IC50 [1] was > 57 µM.
`NS(=O)(=O)c1ccc(Cc2c(-c3ccccc3)nn(-c3nc(C(=O)O)cs3)c2-c2ccccc2)cc1` gave an IC50 [1] of 0.139 µM.
In the case of `NC(=O)c1ccc(Cc2c(-c3cccc(-c4ccccc4)c3)nn(-c3nc(C(=O)O)cs3)c2O)cc1`, the IC50 [1] is reported as > 57 µM.
In the case of `NS(=O)(=O)c1ccc(Cc2c(-c3cccc(-c4ccccc4)c3)nn(-c3nc(-c4nnn[nH]4)cs3)c2O)cc1`, the IC50 [1] is reported as > 57 µM.
With `NS(=O)(=O)N1CCN(Cc2cn(-c3nc(C(=O)O)cs3)nc2-c2ccccc2)CC1` the IC50 [1] was 17.3 µM.
With `O=C(O)c1csc(-n2nc(-c3ccccc3)cc2C(F)F)n1` the inhibition [2] was “inactive”, the IC50 [3] was > 57 µM and the inhibition [4] was “inactive”. The IC50 [1] was > 57 µM.
`O=C(O)c1csc(-n2nc(-c3ccc(Cl)c(Cl)c3)cc2O)n1` was tested, and the inhibition [2] was “inactive”, the IC50 [3] was 0.106 µM and the inhibition [4] was “inactive”. For the same molecule, the IC50 [1] was > 57 µM.
Work on `NS(=O)(=O)c1ccc(Oc2c(-c3ccccc3)nn(-c3nc(C(=O)O)cs3)c2C2CC2)cc1` yielded an IC50 [1] of 0.065 µM.
For `O=C(O)c1csc(-n2nc(-c3ccc(F)c(F)c3)c(Cc3ccccc3)c2O)n1`, the IC50 [1] was > 57 µM.
For `Cc1cc(-c2ccccc2)nn1-c1nc(C(=O)O)cs1`, the inhibition [2] was “inactive”, the IC50 [3] was 15.4 µM and the inhibition [4] was “inactive”. The IC50 [1] was > 57 µM.
With `O=C(O)c1csc(-n2nc(-c3cccc(OC(F)(F)F)c3)cc2O)n1` the inhibition [2] was “inactive”, the IC50 [3] was 0.299 µM and the inhibition [4] was “inactive”. For the same molecule, the IC50 [1] was > 57 µM.
For `NS(=O)(=O)c1ccc(Oc2cn(-c3nc(C(=O)O)cs3)nc2-c2ccccc2)cc1`, the IC50 [1] was 0.124 µM.
With `O=C(O)c1csc(-n2nc(-c3cccc(Cl)c3)cc2O)n1` the inhibition [2] was “inactive”, the IC50 [3] was 0.168 µM and the inhibition [4] was “inactive”. For the same molecule, the IC50 [1] was > 57 µM.
With `CNS(=O)(=O)c1ccc(Cc2c(-c3cccc(-c4ccccc4)c3)nn(-c3nc(C(=O)O)cs3)c2O)cc1` the IC50 [1] was > 57 µM.
In the case of `O=C(O)c1csc(-n2nc(-c3cccc(C(F)(F)F)c3)cc2O)n1`, the inhibition [2] is reported as “inactive”, the IC50 [3] is reported as 0.189 µM and the inhibition [4] is reported as “inactive”. For the same molecule, the IC50 [1] was > 57 µM.
In the case of `NS(=O)(=O)c1ccc(Cc2cn(-c3nc(C(O)C(F)(F)F)cs3)nc2-c2ccccc2)cc1` (stereo not given), the IC50 [1] is reported as > 57 µM.
With `O=C(O)c1csc(-n2nc(-c3ccccn3)cc2O)n1` the inhibition [2] was “inactive”, the IC50 [3] was 1.02 µM and the inhibition [4] was “inactive”. For the same molecule, the IC50 [1] was > 57 µM.
For `NS(=O)(=O)c1cccc(Cc2c(-c3ccc(F)c(F)c3)nn(-c3nc(C(=O)O)cs3)c2O)c1`, the IC50 [1] was > 57 µM.
For `NS(=O)(=O)c1ccc(C(=O)Nc2cn(-c3nc(C(=O)O)cs3)nc2-c2ccccc2)cc1`, the IC50 [1] was > 57 µM.
In the case of `NS(=O)(=O)c1ccc(NCc2cn(-c3nc(C(=O)O)cs3)nc2-c2ccccc2)cc1`, the IC50 [1] is reported as > 57 µM.
`O=C(O)c1ccc(Cc2c(-c3cccc(-c4ccccc4)c3)nn(-c3nc(C(=O)O)cs3)c2O)cc1` gave an IC50 [1] of 33.8 µM.
With `O=C(O)c1csc(-n2nc(-c3ccc(F)cc3)cc2C(F)(F)F)n1` the inhibition [2] was “inactive” and the inhibition [4] was “inactive”.
`NC(=O)c1csc(-n2nc(-c3cccc(-c4ccccc4)c3)c(Cc3ccc(S(N)(=O)=O)cc3)c2O)n1` gave an IC50 [1] of 27.7 µM.
Work on `Cc1c(Cc2ccc(S(N)(=O)=O)cc2)c(-c2ccccc2)nn1-c1nc(C(=O)O)cs1` yielded an IC50 [1] of 0.042 µM.
With `CCOC(=O)c1csc(-n2nc(-c3cccc(-c4ccccc4)c3)c(Cc3ccc(S(N)(=O)=O)cc3)c2C(F)(F)F)n1` the IC50 [1] was > 57 µM.
In the case of `N#Cc1c(Cc2ccc(S(N)(=O)=O)cc2)c(-c2ccccc2)nn1-c1nc(C(=O)O)cs1`, the IC50 [1] is reported as 0.115 µM.
